Assay results: US8039505B2, “Compounds for modulating T-cells” (University of Utah Research Foundation, priority 2007, dated 2011)
Several values for one entry are separate records, joined by “and”; a condition that tells them apart may be missing. Equal values may be shown once.

Test: Pharmacokinetics in male Swiss Albino mouse, intravenous and oral (LC-MS/MS of plasma)
Assay type: in vivo
Settings: for Individual plasma concentration: individual mice; for Mean plasma concentration: N = 3
Procedure: The pharmacokinetics of 1H-indole-3-carbaldehyde quinolin-8-ylhydrazone (Compound C3) was evaluated following intravenous (3 mg/kg) and oral (15 mg/kg) solution administration of 1H-indole-3-carbaldehyde quinolin-8-ylhydrazone in male Swiss Albino mouse. The effect of the Test Item, 1H-indole-3-carbaldehyde quinolin-8-ylhydrazone on complete blood count (CBC) was also evaluated. Pharmacokinetic phase consisted of two groups, Group 1 and Group 2. Animals in Group 1 were given intravenous bolus dose in a vehicle containing 5% N,N-dimethylacetamide, 5% CREMOPHOR™ EL and 90% Dextrose solution (5% w/v) and those in Group 2 were given oral solution dose in a vehicle, the composition of which was same as that of intravenous formulation. In addition, the effect of Test Item on complete blood count was evaluated following intravenous and oral dose administration along with its vehicle controls. A total of four groups were used each with 6 mice.
From the pharmacokinetic group, predose samples were collected from 3 animals in each group. Following dose administration terminal blood samples were collected at each of the following time points (in triplicate): 0.083 (only for intravenous), 0.25, 0.5, 1, 2, 4, 8, 12 and 24 hours. At each time point, approximately 500 μL of whole blood was withdrawn from the retro orbital sinus and collected in labeled tubes containing dipotassium EDTA as anticoagulant (20 μL of 200 mM K2 EDTA solution per mL of blood). Plasma was separated by centrifuging the whole blood at about 2500 g for 10 minutes at 4° C. within 1 h of sample collection. Separated plasma was stored below minus 50° C. until bioanalysis. A sensitive LC-MS/MS method was used for the quantitation of 1H-indole-3-carbaldehyde quinolin-8-ylhydrazone. The lower limit of quantitation was 1.04 ng/mL. For CBC evaluation, approximately 500 μL of blood was collected in labeled tubes containing dipotassium EDTA as anticoagulant (10 […]/mL of blood) after 48 h of dose administration from all animals.
A total of 57 mice were divided into an intravenous dose group of 30 mice (Group 1) and oral dose group of 27 mice (Group 2). Animals in Group 1 received intravenous bolus dose via tail vein at 3 mg/kg and animals in Group 2 received oral solution dose via gavage at 15 mg/kg. Three animals were administered the dose for each time point (intravenous: 10 time points; Oral: 9 time points). Terminal blood samples were collected from each mouse under light ether anesthesia and plasma was separated.
Animals in Group 1 were administered an intravenous bolus dose via the tail vein (dosing volume: 6 mL/kg). Animals in Group 2 received oral dose by gavage with an oral dosing needle (dosing volume: 10 mL/kg). Animals in the CBC evaluation group were treated same as above except the animals in control group received vehicle instead of formulation.
Pharmacokinetic group: Predose samples were collected from 3 animals in each group. Following dose administration terminal blood samples were collected at each of the following time points (in triplicate): 0.083 (only for intravenous), 0.25, 0.5, 1, 2, 4, 8, 12 and 24 hours. For each time point, approximately 500 μL of whole blood was withdrawn from the retro orbital sinus and collected in labeled tubes containing dipotassium EDTA as anticoagulant (20 μL of 200 mM K2 EDTA solution per mL of blood). Plasma was separated by centrifuging the whole blood at about 2500 g for 10 minutes at 4° C. within 1 h of sample collection. Separated plasma was stored below minus 50° C. until bioanalysis.
An LC-MS/MS method was developed and employed for the quantitation of 1H-indole-3-carbaldehyde quinolin-8-ylhydrazone in the mouse plasma samples. The samples were prepared for analysis following liquid-liquid extraction using amodiaquin as internal standard. The lower limit of quantitation was 1.04 ng/mL.
Pharmacokinetic parameters were calculated using non-compartmental analysis tool of WINNONLIN™ Enterprise software (Version 5.1.1). […]

[1] = mouse plasma, IV 3 mg/kg, 0.25 h samples, listed as ICQH, 3 mg/kg
[2] = mouse, intravenous bolus 3 mg/kg, 24 h, BLQ = below LLOQ 1.04 ng/mL
[3] = mouse, oral solution 15 mg/kg, 24 h, BLQ = below LLOQ 1.04 ng/mL

C(=NNc1cccc2cccnc12)c1c[nH]c2ccccc12 [Compound C3, 1H-indole-3-carbaldehyde quinolin-8-ylhydrazone]
Accepted conc. (repeat analysis) [1]: 199.60 c ng/mL and 225.35 c ng/mL | Initial conc. (repeat analysis) [1]: 132.16 ng/mL | Repeated conc. (repeat analysis) [1]: 225.35 ng/mL | Clearance as share of liver blood flow (mouse, IV 3 mg/kg): about 60 % of liver blood flow | Volume of distribution (mouse, IV 3 mg/kg): 4.28 Ukg | Volume of distribution relative to total body water (mouse, IV 3 mg/kg): about 6 times of total body water | Time till which plasma concentrations were quantifiable (mouse, following both intravenous (3 mg/kg) and oral (15 mg/kg) administration): 12 h | Individual plasma concentration (mouse, intravenous bolus 3 mg/kg, 0.083 h, LLOQ 1.04 ng/mL, 3 mg/kg): 2253.61 ng/mL and 1125.73 ng/mL and 75.62 b ng/mL | Individual plasma concentration (mouse, intravenous bolus 3 mg/kg, 0.083 h, LLOQ 1.04 ng/mL, listed as ICQH, 3 mg/kg): 2253.61 ng/mL and 1125.73 ng/mL and 75.62 ng/mL | Individual plasma concentration (mouse, intravenous bolus 3 mg/kg, 0.25 h, LLOQ 1.04 ng/mL, 3 mg/kg): 307.05 ng/mL and 225.35 ng/mL | Individual plasma concentration (mouse, intravenous bolus 3 mg/kg, 0.25 h, LLOQ 1.04 ng/mL, listed as ICQH, 3 mg/kg): 199.60 ng/mL and 307.05 ng/mL and 225.35 ng/mL | Individual plasma concentration (mouse, intravenous bolus 3 mg/kg, 0.5 h, LLOQ 1.04 ng/mL, 3 mg/kg): 388.25 ng/mL and 148.82 ng/mL and 339.56 ng/mL | Individual plasma concentration (mouse, intravenous bolus 3 mg/kg, 0.5 h, LLOQ 1.04 ng/mL, listed as ICQH, 3 mg/kg): 388.25 ng/mL and 148.82 ng/mL and 339.56 ng/mL | Individual plasma concentration (mouse, intravenous bolus 3 mg/kg, 1 h, LLOQ 1.04 ng/mL, 3 mg/kg): 184.80 ng/mL and 140.18 ng/mL | Individual plasma concentration (mouse, intravenous bolus 3 mg/kg, 1 h, LLOQ 1.04 ng/mL, listed as ICQH, 3 mg/kg): 184.80 ng/mL and 116.46 ng/mL and 140.18 ng/mL | Individual plasma concentration (mouse, intravenous bolus 3 mg/kg, 2 h, LLOQ 1.04 ng/mL, 3 mg/kg): 76.60 ng/mL and 47.02 ng/mL | Individual plasma concentration (mouse, intravenous bolus 3 mg/kg, 2 h, LLOQ 1.04 ng/mL, listed as ICQH, 3 mg/kg): 71.88 ng/mL and 76.60 ng/mL and 47.02 ng/mL | Individual plasma concentration (mouse, intravenous bolus 3 mg/kg, 4 h, LLOQ 1.04 ng/mL, 3 mg/kg): 27.25 ng/mL and 38.13 ng/mL | Individual plasma concentration (mouse, intravenous bolus 3 mg/kg, 4 h, LLOQ 1.04 ng/mL, listed as ICQH, 3 mg/kg): 42.37 ng/mL and 27.25 ng/mL and 38.13 ng/mL | Individual plasma concentration (mouse, intravenous bolus 3 mg/kg, 8 h, LLOQ 1.04 ng/mL, 3 mg/kg): 5.65 ng/mL and 11.10 ng/mL | Individual plasma concentration (mouse, intravenous bolus 3 mg/kg, 8 h, LLOQ 1.04 ng/mL, listed as ICQH, 3 mg/kg): 10.11 ng/mL and 5.65 ng/mL and 11.10 ng/mL | Individual plasma concentration (mouse, intravenous bolus 3 mg/kg, 12 h, BLQ = below LLOQ 1.04 ng/mL, 3 mg/kg): 2.20 ng/mL and BLQ | Individual plasma concentration (mouse, intravenous bolus 3 mg/kg, 12 h, BLQ = below LLOQ 1.04 ng/mL, listed as ICQH, 3 mg/kg): 1.68 ng/mL and 2.20 ng/mL and BLQ | Mean plasma concentration [2]: BLQ | Individual plasma concentration [2]: BLQ | Time of maximum concentration post-dose (mouse, oral solution 15 mg/kg): 1.0 h | Individual plasma concentration (mouse, oral solution 15 mg/kg, 0.25 h, LLOQ 1.04 ng/mL): 53.05 ng/mL and 113.38 ng/mL and 254.20 ng/mL | Individual plasma concentration (mouse, oral solution 15 mg/kg, 0.25 h, LLOQ 1.04 ng/mL, listed as ICQH): 53.05 ng/mL and 113.38 ng/mL and 254.20 ng/mL | Individual plasma concentration (mouse, oral solution 15 mg/kg, 0.5 h, LLOQ 1.04 ng/mL): 96.22 ng/mL and 72.56 ng/mL and 273.76 ng/mL | Individual plasma concentration (mouse, oral solution 15 mg/kg, 0.5 h, LLOQ 1.04 ng/mL, listed as ICQH): 96.22 ng/mL and 72.56 ng/mL and 273.76 ng/mL | Individual plasma concentration (mouse, oral solution 15 mg/kg, 1 h, LLOQ 1.04 ng/mL): 143.63 ng/mL and 32.21 ng/mL and 422.48 ng/mL | Individual plasma concentration (mouse, oral solution 15 mg/kg, 1 h, LLOQ 1.04 ng/mL, listed as ICQH): 143.63 ng/mL and 32.21 ng/mL and 422.48 ng/mL | Individual plasma concentration (mouse, oral solution 15 mg/kg, 2 h, LLOQ 1.04 ng/mL): 51.85 ng/mL and 95.13 ng/mL and 142.67 ng/mL | Individual plasma concentration (mouse, oral solution 15 mg/kg, 2 h, LLOQ 1.04 ng/mL, listed as ICQH): 51.85 ng/mL and 95.13 ng/mL and 142.67 ng/mL | Individual plasma concentration (mouse, oral solution 15 mg/kg, 4 h, LLOQ 1.04 ng/mL): 185.50 ng/mL and 87.82 ng/mL and 164.88 ng/mL | Individual plasma concentration (mouse, oral solution 15 mg/kg, 4 h, LLOQ 1.04 ng/mL, listed as ICQH): 185.50 ng/mL and 87.82 ng/mL and 164.88 ng/mL | Individual plasma concentration (mouse, oral solution 15 mg/kg, 8 h, LLOQ 1.04 ng/mL): 71.29 ng/mL and 78.06 ng/mL | Individual plasma concentration (mouse, oral solution 15 mg/kg, 8 h, LLOQ 1.04 ng/mL, listed as ICQH): 76.65 ng/mL and 71.29 ng/mL and 78.06 ng/mL | Individual plasma concentration (mouse, oral solution 15 mg/kg, 12 h, LLOQ 1.04 ng/mL): 4.05 ng/mL and 11.47 ng/mL and 11.21 ng/mL | Individual plasma concentration (mouse, oral solution 15 mg/kg, 12 h, LLOQ 1.04 ng/mL, listed as ICQH): 4.05 ng/mL and 11.47 ng/mL and 11.21 ng/mL | Mean plasma concentration [3]: BLQ | Individual plasma concentration [3]: BLQ
